Results on 25 molecules are retold here after publication PMC6838683, “Discovery of Human Signaling Systems: Pairing Peptides to G Protein-Coupled Receptors” (Cell, 2019).

Like-named read-outs stand apart in the source and are kept apart here. Residues, ends and D or L forms follow the SMILES beside them.

Assay [1] concerns the target T1, GPR1 (Homo sapiens, UniProt P46091).
T1 sequence (P46091 1-355): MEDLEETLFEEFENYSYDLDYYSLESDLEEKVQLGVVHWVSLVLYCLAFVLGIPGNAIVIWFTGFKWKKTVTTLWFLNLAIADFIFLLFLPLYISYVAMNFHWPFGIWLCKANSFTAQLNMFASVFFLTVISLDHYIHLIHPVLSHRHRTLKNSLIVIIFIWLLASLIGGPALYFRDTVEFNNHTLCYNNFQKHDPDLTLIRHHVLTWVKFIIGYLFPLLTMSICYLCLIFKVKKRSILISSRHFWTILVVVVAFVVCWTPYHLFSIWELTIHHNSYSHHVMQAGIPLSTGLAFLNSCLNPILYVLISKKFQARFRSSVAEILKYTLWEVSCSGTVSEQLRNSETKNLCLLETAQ
Put plainly: β-arrestin recruitment (PathHunter). In kind it is cell-based. The settings on record: receptor GPR1; mean, SEM and n (2-3); read-out: b-arrestin recruitment assays (PathHunter) pEC50 (converted). The protocol:
PathHunter eXpress Assays (DiscoverX) were performed in 384-well format according to the manufacturer’s recommendations. GPR1 cells were incubated with peptides for 90 min and luminescence measured using an EnSpire 2300 Multimode plate reader (PerkinElmer).
Background: Arrestin recruitment assays detect the binding of arrestin to an activated receptor.

The target of assay [2] is T1, GPR1. Briefly: β-arrestin recruitment (Tango), validation. The class given is cell-based. The arrangement: host or cells: HTLA cells (HEK293-derived).
The subject of assay [3] is 120 GPCR targets, including all available orphan receptors and 27 known class A peptide receptors. Put plainly: Peptide library screen, β-arrestin recruitment (Tango, fold change, 10 μM). The class given is cell-based, human. To be noted: for Active at: (activity in b-arrestin recruitment assays): Tango, receptor(s) at which the known library peptide was active, among its known GPCR target(s), validated pairings; for Confirmation of known target in Tango: repeat hitters of the peptide library screen, the value names the known receptor(s) confirmed in the β-arrestin recruitment (Tango) screen. As to the method: The peptide library was additionally screened against 120 GPCR targets in parallel, including all available orphan receptors and 27 known class A peptide receptors using the Tango assay platform ([Kroeze et al., 2015]). Briefly, HTLA cells (a HEK293 cell line stably expressing a tTA-dependent luciferase reporter and a β-arrestin2-TEV fusion gene) were plated 10,000 cells/well in poly-L-lysine–coated clear-bottom white 384-well plates in DMEM supplemented with 10% FBS, 100 U/ml penicillin and 100 μg/ml streptomycin, 2 μg/ml puromycin and 100 μg/ml hygromycin B. 24 hr later, cells were transfected with Tango GPCR constructs using the calcium phosphate method ([Jordan et al., 1996]). The next day, culture medium was changed to DMEM + 1% dFBS and 10 μM peptides were added for overnight stimulation. Bright-Glo solution (Promega) was incubated for 15–20 min at room temperature, and luminescence was counted using a Trilux luminescence counter (Wallac).

A further assay concerns human GPCRs. On the set-up: method as in Guide to Pharmacology database. To be noted: max reported value, ref Guide to Pharmacology database, cited from earlier work. The source says:
Supplement mmc1.xlsx, sheet "HumanGPCRLigands" | column: pKi_value; pKd_value; pEC50_value; pIC50_value

Where [4] appears, read: receptor GPR1, mean, SEM and n (2-3), read-out: b-arrestin recruitment assays (Tango) pEC50 (converted).
Setting [5] is: receptor PROKR1 (pkr1_human, Q8TCW9).
Setting [6] is: receptor PROKR2 (pkr2_human, Q8NFJ6).

Turning to `CC(C)C[C@H](NC(=O)[C@H](CCCNC(=N)N)NC(=O)[C@H](CC(=O)O)NC(=O)[C@H](CC(C)C)NC(=O)[C@@H]1CCCN1C(=O)[C@H](CO)NC(=O)CNC(=O)[C@H](Cc1ccccc1)NC(=O)CNC(=O)[C@H](CO)NC(=O)[C@H](Cc1ccccc1)NC(=O)[C@H](CO)NC(=O)[C@H](CCCNC(=N)N)NC(=O)[C@@H](N)CCCCN)C(=O)N[C@@H](CO)C(=O)N[C@@H](C)C(=O)NCC(=O)N[C@@H](CO)C(=O)N[C@H](C(=O)N[C@@H](CC(=O)O)C(=O)N[C@@H](Cc1c[nH]cn1)C(=O)N[C@@H](CCCCN)C(N)=O)C(C)C` [141 resynthesized] (H-KRSFSGFGSPLDRLSAGSVDHK-NH2), the figures for the EC50 on GPR1 [1] and on GPR1 [2] (setting [4]) were 661 nM and 5010 nM, respectively. Taken in the same sequence, the figures for `CC[C@H](C)[C@H](NC(=O)[C@H](CCCNC(=N)N)NC(=O)[C@H](Cc1c[nH]cn1)NC(=O)[C@H](CO)NC(=O)[C@@H]1CCCN1C(=O)[C@H](CC(=O)O)NC(=O)[C@H](CC(C)C)NC(=O)[C@H](CC(N)=O)NC(=O)[C@H](CCC(N)=O)NC(=O)[C@H](CC(C)C)NC(=O)[C@H](CC(N)=O)NC(=O)[C@H](CCCCN)NC(=O)[C@@H](NC(=O)[C@@H](NC(=O)[C@H](CO)NC(=O)[C@H](CCSC)NC(=O)[C@H](CCCNC(=N)N)NC(=O)CNC(=O)[C@H](CO)NC(=O)[C@@H]1CCCN1C(=O)[C@H](C)NC(=O)[C@@H](N)CCCCN)[C@@H](C)CC)C(C)C)C(=O)N[C@@H](CO)C(=O)N[C@@H](CC(=O)O)C(=O)N[C@@H](CCCNC(=N)N)C(=O)N[C@@H](CC(=O)O)C(=O)N[C@@H](Cc1ccc(O)cc1)C(=O)N[C@@H](CCSC)C(=O)NCC(=O)N[C@@H](Cc1c[nH]c2ccccc12)C(=O)N[C@@H](CCSC)C(=O)N[C@@H](CC(=O)O)C(=O)N[C@@H](Cc1ccccc1)C(N)=O` [194 original] (H-KAPSGRMSIVKNLQNLDPSHRISDRDYMGWMDF-NH2) were 9.77 nM and 5250 nM.

On to `CC[C@H](C)[C@H](NC(=O)[C@H](CCCNC(=N)N)NC(=O)[C@H](Cc1c[nH]cn1)NC(=O)[C@H](CO)NC(=O)[C@@H]1CCCN1C(=O)[C@H](CC(=O)O)NC(=O)[C@H](CC(C)C)NC(=O)[C@H](CC(N)=O)NC(=O)[C@H](CCC(N)=O)NC(=O)[C@H](CC(C)C)NC(=O)[C@H](CC(N)=O)NC(=O)[C@H](CCCCN)NC(=O)[C@@H](NC(=O)[C@@H](NC(=O)[C@H](CO)NC(=O)[C@H](CCSC)NC(=O)[C@H](CCCNC(=N)N)NC(=O)CNC(=O)[C@H](CO)NC(=O)[C@@H]1CCCN1C(=O)[C@H](C)NC(=O)[C@@H](N)CCCCN)[C@@H](C)CC)C(C)C)C(=O)N[C@@H](CO)C(=O)N[C@@H](CC(=O)O)C(=O)N[C@@H](CCCNC(=N)N)C(=O)N[C@@H](CC(=O)O)C(=O)N[C@@H](Cc1ccc(O)cc1)C(=O)N[C@@H](CCSC)C(=O)NCC(=O)N[C@@H](Cc1c[nH]c2ccccc12)C(=O)N[C@@H](CCSC)C(=O)N[C@@H](CC(=O)O)C(=O)N[C@@H](Cc1ccccc1)C(N)=O` [194 resynthesized] (H-KAPSGRMSIVKNLQNLDPSHRISDRDYMGWMDF-NH2), for which the EC50 at GPR1 [1] is 27.5 nM; at GPR1 [2] (setting [4]) it was 6610 nM. Taken in the same sequence, the figures for `CSCC[C@H](NC(=O)[C@@H](N)Cc1c[nH]c2ccccc12)C(=O)N[C@@H](CC(=O)O)C(=O)N[C@@H](Cc1ccccc1)C(N)=O` [194.2 (Phoenix)] were 0.0132 nM and 39.8 nM. For `CC(C)C[C@H](NC(=O)[C@H](CCCNC(=N)N)NC(=O)[C@H](CC(=O)O)NC(=O)[C@H](CC(C)C)NC(=O)[C@@H]1CCCN1C(=O)[C@H](CO)NC(=O)CNC(=O)[C@H](Cc1ccccc1)NC(=O)CNC(=O)[C@H](CO)NC(=O)[C@H](Cc1ccccc1)NC(=O)[C@@H](N)CO)C(=O)N[C@@H](CO)C(=O)N[C@@H](C)C(=O)NCC(=O)N[C@@H](CO)C(=O)N[C@H](C(=O)N[C@@H](CC(=O)O)C(=O)N[C@@H](Cc1c[nH]cn1)C(=O)N[C@@H](CCCCN)C(N)=O)C(C)C` [Peptide 141.1] (H-SFSGFGSPLDRLSAGSVDHK-NH2), the EC50 is 14100 nM at GPR1 [1] and 14500 nM at GPR1 [2] (setting [4]).

On to `CC(C)C[C@H](NC(=O)[C@H](CCCNC(=N)N)NC(=O)[C@H](CC(=O)O)NC(=O)[C@H](CC(C)C)NC(=O)[C@@H]1CCCN1C(=O)[C@H](CO)NC(=O)CNC(=O)[C@H](Cc1ccccc1)NC(=O)CNC(=O)[C@H](CO)NC(=O)[C@H](Cc1ccccc1)NC(=O)[C@H](CO)NC(=O)[C@H](CCCNC(=N)N)NC(=O)[C@@H](N)CCCCN)C(=O)N[C@@H](CO)C(=O)N[C@@H](C)C(=O)NCC(=O)N[C@@H](CO)C(=O)N[C@H](C(=O)N[C@@H](CC(=O)O)C(=O)N[C@@H](Cc1c[nH]cn1)C(=O)N[C@@H](CCCCN)C(=O)NCC(=O)N[C@@H](CCCCN)C(=O)N[C@@H](CCC(N)=O)C(=O)O)C(C)C` [Peptide 141.2] (H-KRSFSGFGSPLDRLSAGSVDHKGKQ-OH), for which the EC50 on GPR1 [1] was 1170 nM; at GPR1 [2] (setting [4]) it was 2630 nM. As to `CC(C)C[C@H](NC(=O)[C@H](CCCNC(=N)N)NC(=O)[C@H](CC(=O)O)NC(=O)[C@H](CC(C)C)NC(=O)[C@@H]1CCCN1C(=O)[C@H](CO)NC(=O)CNC(=O)[C@H](Cc1ccccc1)NC(=O)CNC(=O)[C@H](CO)NC(=O)[C@H](Cc1ccccc1)NC(=O)[C@H](CO)NC(=O)[C@H](CCCNC(=N)N)NC(=O)[C@@H](N)CCCCN)C(=O)N[C@@H](CO)C(=O)N[C@@H](C)C(=O)NCC(=O)N[C@@H](CO)C(=O)N[C@H](C(=O)N[C@@H](CC(=O)O)C(=O)N[C@@H](Cc1c[nH]cn1)C(=O)N[C@@H](CCCCN)C(N)=O)C(C)C` [Peptide 141] (H-KRSFSGFGSPLDRLSAGSVDHK-NH2), the EC50 at GPR1 [2] (HTLA cells transiently transfected, overnight stimulation, luciferase, mean ± SEM of 3-4 independent experiments in triplicate, read-out: pEC50, β-arrestin recruitment (Tango), GPR1 (converted)) is 2510 nM. For AADHDVGSELPPEGVLGALLRV [Peptide 146], the “Active at: (activity in b-arrestin recruitment assays)” value in assay [3] is reported as “GPR83”. Regarding CYFQNCPRG (disulfide) [Peptide 44], the “Active at: (activity in b-arrestin recruitment assays)” value in assay [3] was “V1a V1b V2 OT”. In the case of CYIQNCPLG (disulfide) [Peptide 45], the “Active at: (activity in b-arrestin recruitment assays)” value in assay [3] was “V1a V2 OT”. Take DEGPYRMEHFRWGSPPKD [Peptide 126]: in assay [3], the “Active at: (activity in b-arrestin recruitment assays)” value is on record as “MC4R”. For FGGFTGARKSARKLANQ [Peptide 120], the “Active at: (activity in b-arrestin recruitment assays)” value in assay [3] is reported as “NOP”.

In the case of FRVDEEFQSPFASQSRGYFLFRPRN [Peptide 159], the “Active at: (activity in b-arrestin recruitment assays)” value in assay [3] is on record as “NMUR1”. With FVPIFTYGELQRMQEKERNKGQ [Peptide 145], in assay [3], the “Active at: (activity in b-arrestin recruitment assays)” value is on record as “MLNR” and the “Confirmation of known target in Tango” value is “Motilin receptor”. For “ILQRGSGTAAVDFTKKDHTATWGRPFFLFRPRN [Peptide 195]”, in assay [3], the “Active at: (activity in b-arrestin recruitment assays)” value is reported as “NMUR1, NMUR2” and the “Confirmation of known target in Tango” value is listed as “NMUR1”. As to KRSFSGFGSPLDRLSAGSVDHK [141 original], on GPR1 [2] (receptor GPR1, mean, SEM and n (2-3)), the “b-arrestin recruitment assays (Tango) Emax (fold change)” value turned out to be 14.4 fold change. With SYSMEHFRWGKPV [Peptide 93], the “Active at: (activity in b-arrestin recruitment assays)” value in assay [3] is listed as “MC4R”.

In the case of VPNLPQRF [Peptide 29], the “Active at: (activity in b-arrestin recruitment assays)” value in assay [3] is “NPFF1”. On the same count and under the same terms, then WYKPAAGHSSYSVGRAAGLLSGL [Peptide 152], with “NPBW1”.

As for YGGFL [Peptide 14], the “Active at: (activity in b-arrestin recruitment assays)” value in assay [3] is “Inactive”. On the same count and under the same terms, next, YGGFLRKYP [Peptide 46]: “Kappa”; “YGGFMTSEKSQTPLVTLFKNAIIKNAYKKGE [Peptide 182]”: “kappa, mu”. Consider YVMGHFRWDRF [Peptide 74], for which the “Active at: (activity in b-arrestin recruitment assays)” value in assay [3] was “MC4R”.

B1: prokineticin-2 (protein, UniProt Q9HC23 28-129, looked up)
Prokineticin-2: AVITGACDKDSQCGGGMCCAVSIWVKSIRICTPMGKLGDSCHPLTRKNNFGNGRQERRKRKRSKRKKEVPFFGRRMHHTCPCLPGLACLRTSFNRFICLAQK
With B1, the pIC50_value with human GPCRs (setting [5]) is reported as 8.4; in the assay on human GPCRs (setting [6]) it was 8.2.

B2: prokineticin-1 (protein, UniProt P58294 20-105, looked up)
Prokineticin-1: AVITGACERDVQCGAGTCCAISLWLRGLRMCTPLGREGEECHPGSHKVPFFRKRKHHTCPCLPNLLCSRFPDGRYRCSMDLKNINF
Take B2: the pIC50_value in the assay with human GPCRs (setting [5]) was 7.6; in the assay with human GPCRs (setting [6]), 7.3.
